# Source: patent US10562864B2, “Chemical modulators of immune checkpoints and therapeutic use” (Duke University, priority 2015, dated 2020)
# “Also recorded” adds a separate entry of the source.
# Key:
# [1] = molecular target: T1, PD1-GFP (Homo sapiens, UniProt Q15116); assay: Internalization assay (PD1-GFP), confocal imaging of PD1-GFP stable U2OS cells; type: cell-based; design: Internalized PD1-GFP punctate; 6 hr (10 μM): key to the marks not given beside the values; conditions: 37° C.
# T1 construct: expressed in transfected cells; host or cells: U2OS
# Description: U2OS cells were transfected with PD1-GFP and stable receptor-expressing cells were selected using 0.5 mg/ml Geneticin in the culture medium. […] The plates were incubated overnight at 37° C. in 5% CO2. The following day, chemical compounds (10 mM in DMSO) were diluted 1:200 in culture medium, 6.25 μL of which was then added to each well of cells to produce a 1:1000 dilution overall and final compound concentration of 10 μM per well. The cells were incubated with compound for 6 h at 37° C. prior to fixation in PBS containing 0.5% paraformaldehyde for 30 min at room temperature. The wells were then washed with PBS three times and stored at 4° C. The cells were imaged using a Zeiss LSM-510 confocal microscope.
# [2] = test system: PD-1; assay: Western blot analysis of PD-1 protein level in 4T1 cells stably expressing PD-1; type: cell-based, murine; design: key to Decrease in PD1 protein level by western blot at 24 h at 5 μM: † 3+ Scale with + least and +++ most; † 3+ Scale with + least and +++ most; † 3+ Scale with + least and +++ most; key to Decrease in PD1 protein level by western blot at 4 days at 3 μM: ‡ 3+ Scale with + least and +++ most; ‡ 3+ Scale with + least and +++ most; ‡ 3+ Scale with + least and +++ most; conditions: for Decrease in PD1 protein level by western blot at 4 days at 3 μM / Decrease in PD1 protein level by western blot at 24 h at 5 μM / PD-1 protein levels by western blot after 4 days: 4T1-PD1 cells; for PD-1 protein levels by western blot at 24 hours: 4T1 cells stably expressing PD-1, FIG. 9, 10, 12; for PD-1 protein levels by western blot after 4 days: FIG. 13
# Description: Murine breast cancer cells were grown in DMEM medium supplemented with 10% FBS and penicillin and streptomycin antibiotics at 37° C. in 5% CO2.
# 4T1 Murine breast cancer cells stably expressing PD1 were seeded in 12-well plates (30 k cells/well) and incubated overnight. […] Cells were lysed with SDS sample buffer and lysates were subjected to western blot analysis
# 4T1-PD1 cells were seeded in 12-well plates (100 k cells/well) overnight. On the next day, compounds were added and the cells incubated for 4 days. The cells were then lysed in SDS sample buffer and lysates were subjected to western blot analysis
# [3] = test system: phospho-Erk1/2; assay: Western blot analysis of phospho-Erk1/2 levels in 4T1-PD1 cells; type: cell-based, murine; conditions: 24 hours, FIG. 11, 12
# Description: 4T1-PD1 cells (30K cells/per well) were seeded in 12-well plates overnight. On the following day, the compounds were added and the cells were incubated for 24 hours. The cells were then lysed in SDS sample buffer and analyzed by western blots.
# 4T1-PD1 cells (30K cells/per well) were seeded in 12-well plates overnight. On the following day, the compounds were added and the cells were incubated for 24 hours. The cells were then lysed in SDS sample buffer and analyzed by western blot.
# 4T1 Murine breast cancer cells stably expressing PD1 were seeded in 12-well plates (30 k cells/well) and incubated overnight. On the next day, compounds were added to produce the final concentration desired and the cells were incubated for […]. Cells were lysed with SDS sample buffer and lysates were subjected to western blot analysis
# [4] = molecular target: T1, PD1-GFP; assay: Internalization assay (PD1-GFP), confocal imaging of PD1-GFP stable U2OS cells; type: cell-based; conditions: 0.25 μM to 10 μM, 6 h, see FIG. 6/7
# [5] = molecular target: T2, PDL1-GFP (Homo sapiens, UniProt Q9NZQ7); assay: Confocal imaging of PDL1-GFP stable U2OS cells; type: cell-based; conditions: 10 μM, 6 h, 37° C., FIG. 2
# T2 construct: expressed in transfected cells; host or cells: U2OS
# [6] = molecular target: T3, CTLA4-GFP (Homo sapiens, UniProt P16410); assay: CTLA4-GFP internalization, confocal imaging of CTLA4-GFP stable U2OS cells; type: cell-based; design: key to Internalized CTLA4-GFP punctate; 6 hr (10 μM): **4+ Scale with + least and ++++ most; **4+ Scale with + least and ++++ most; **4+ Scale with + least and ++++ most; **4+ Scale with + least and ++++ most
# T3 construct: expressed in transfected cells; host or cells: U2OS
# T3 sequence (P16410 36-223): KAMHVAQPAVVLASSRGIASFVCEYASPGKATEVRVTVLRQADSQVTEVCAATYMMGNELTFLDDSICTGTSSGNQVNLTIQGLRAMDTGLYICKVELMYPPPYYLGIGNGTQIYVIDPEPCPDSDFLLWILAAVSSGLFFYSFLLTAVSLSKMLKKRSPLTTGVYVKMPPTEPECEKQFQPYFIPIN
# T1 sequence (Q15116 25-288): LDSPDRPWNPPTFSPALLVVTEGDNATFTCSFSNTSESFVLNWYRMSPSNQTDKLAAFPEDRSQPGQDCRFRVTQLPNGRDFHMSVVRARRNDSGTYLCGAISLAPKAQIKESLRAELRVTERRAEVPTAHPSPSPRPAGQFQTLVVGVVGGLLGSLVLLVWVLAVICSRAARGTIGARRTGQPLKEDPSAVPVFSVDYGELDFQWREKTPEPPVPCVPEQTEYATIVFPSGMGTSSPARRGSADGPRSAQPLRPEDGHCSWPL
# T2 sequence (Q9NZQ7 19-290): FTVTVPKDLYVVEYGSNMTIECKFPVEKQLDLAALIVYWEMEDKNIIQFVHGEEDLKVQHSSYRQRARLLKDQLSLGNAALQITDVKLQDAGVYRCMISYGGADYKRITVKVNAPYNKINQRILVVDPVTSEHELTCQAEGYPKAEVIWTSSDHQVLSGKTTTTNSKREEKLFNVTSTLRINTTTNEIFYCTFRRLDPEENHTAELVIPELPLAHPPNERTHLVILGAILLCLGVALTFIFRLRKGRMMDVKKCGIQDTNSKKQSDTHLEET
SMILES,Internalized PD1-GFP punctate; 6 hr (10 μM) [1],Decrease in PD1 protein level by western blot at 24 h at 5 μM [2],PD-1 protein levels by western blot at 24 hours [2],further results
"CC(=O)Oc1ccccc1C(=O)Nc1ncc([N+](=O)[O-])s1 [Compound 12, nitazoxanide]",++,+,lower PD-1 and phopho-Erk1/2 protein levels,phospho-Erk1/2 levels by western blot [3]: lower PD-1 and phopho-Erk1/2 protein levels
"O=[N+]([O-])c1ccc2[nH]c(-c3cc(F)ccc3O)nc2c1 [Compound 3, 4-fluoro-2-(5-nitro-1H-benzo[d]imidazol-2-yl)phenol]",–,++,lower PD-1 and phopho-Erk1/2 protein levels,phospho-Erk1/2 levels by western blot [3]: lower PD-1 and phopho-Erk1/2 protein levels; Decrease in PD1 protein level by western blot at 4 days at 3 μM [2]: +++; PD-1 protein levels by western blot after 4 days [2]: lower PD-1 protein levels
"O=C(Nc1ccc(C(F)(F)F)cc1Cl)c1cc(Cl)ccc1O [Compound 5, 5-chloro-N-(2-chloro-4-(trifluoromethyl)phenyl)-2-hydroxybenzamide]",++++,–,–,–
O=C(Nc1ncc([N+](=O)[O-])s1)c1ccccc1O [Compound 11],++,–,–,–
"CC[C@@H](C(=O)[C@@H](C)[C@@H](O)[C@H](C)CCc1ccc(C)c(O)c1C(=O)O)[C@H]1O[C@](CC)([C@H]2CC[C@](O)(CC)[C@H](C)O2)C[C@@H]1C [Compound 14, lasalocid]",++++,++,lower PD-1 protein levels,phospho-Erk1/2 levels by western blot [3]: lower phospho-Erk1/2 levels
CCCCc1oc2ccccc2c1C(=O)c1cc(I)c(OCCN(CC)CC)c(I)c1 [amiodarone],–,–,–,PD-1 protein levels by western blot after 4 days [2]: lower PD-1 protein levels
"O=[N+]([O-])c1ccc2[nH]c(-c3cc(Cl)ccc3O)nc2c1 [Compound 2, 4-Chloro-2-(5-nitro-1H-benzo[d]imidazol-2-yl)phenol]",++++,++,lower PD-1 and phopho-Erk1/2 protein levels,phospho-Erk1/2 levels by western blot [3]: lower PD-1 and phopho-Erk1/2 protein levels; Decrease in PD1 protein level by western blot at 4 days at 3 μM [2]: +++; PD-1 protein levels by western blot after 4 days [2]: lower PD-1 protein levels
"O=C(Nc1ccc([N+](=O)[O-])cc1Cl)c1cc(Cl)ccc1O [Compound 10, niclosamide]",++++,+++,decreases PD-1 protein levels; also recorded: lower PD-1 protein levels,"phospho-Erk1/2 levels by western blot [3]: lower phospho-Erk1/2 levels; PD1-GFP internalization in confocal images ([1]; 10 μM, 6 h, FIG. 1): internalized PD1-GFP vesicles; PDL1-GFP vesicles in confocal images [5]: aggregated PDL1-GFP vesicles; EC50 [4]: 3 µM; CTLA4-GFP vesicles in confocal images ([6]; 10 μM, 6 h, 37° C., FIG. 3): aggregated CTLA4-GFP vesicles; Internalized CTLA4-GFP punctate; 6 hr (10 μM) ([6]; 6 hr): +++; PD-1 protein levels by western blot at 6 hours ([2]; 6 hrs, 4T1 cells stably expressing PD-1, FIG. 8): decreases PD-1 protein levels"
"O=C(Nc1ccc(C(F)(F)F)cc1)c1cc(Cl)cc2[nH]c(C(F)(F)F)nc12 [Compound 9, 6-Chloro-2-(trifluoromethyl)-N-(4-(trifluoromethyl)phenyl)-1H-benzo[d]imidazole-4-carboxamide]",++++,–,–,–
"O=S(=O)(Nc1ccc(C(F)(F)F)cc1Cl)c1cc(Cl)ccc1O [Compound 4, 5-Chloro-N-(2-chloro-4-(trifluoromethyl)phenyl)-2-hydroxybenzenesulfonamide]",++,–,–,–
"Cc1ccc(S(=O)(=O)Nc2ccc(Br)cc2C(=O)Nc2ccc(C(F)(F)F)cc2)cc1 [Compound 8, 5-Bromo-2-((4-methylphenyl)sulfonamido)-N-(4-(trifluoromethyl)phenyl)benzamide]",++++,–,–,–
"O=C(Nc1cc(Cl)cc(Cl)c1)c1cc(Cl)ccc1O [Compound 6, 5-chloro-N-(3,5-dichlorophenyl)-2-hydroxybenzamide]",++++,–,–,–
CCN(CC)CCCC(C)Nc1ccnc2cc(Cl)ccc12 (centres unmarked) [Compound 19],+++,–,–,–

# Continued, in another order:
Internalized PD1-GFP punctate; 6 hr (10 μM) [1],SMILES,Decrease in PD1 protein level by western blot at 24 h at 5 μM [2],PD-1 protein levels by western blot at 24 hours [2],further results
+++,CCN(CC)CCCC(C)Nc1c2ccc(Cl)cc2nc2ccc(OC)cc12 (centres unmarked) [Compound 16],–,–,–
+++,COc1ccc2cc1Oc1ccc(cc1)C[C@H]1c3cc(c(OC)cc3CCN1C)Oc1c(OC)c(OC)cc3c1[C@H](C2)N(C)CC3 [Compound 17],–,–,Decrease in PD1 protein level by western blot at 4 days at 3 μM [2]: ++
+++,CCCCc1oc2ccccc2c1C(=O)c1cc(I)c(OCCN(CC)CC)c(I)c1 [Compound 13],–,–,Decrease in PD1 protein level by western blot at 4 days at 3 μM [2]: ++
++++,"CCCCCCCC(=O)Oc1ccc(Cl)cc1C(=O)Nc1ccc([N+](=O)[O-])cc1Cl [Compound 7, 4-Chloro-2-((2-chloro-4-nitrophenyl)carbamoyl)phenyl octanoate]",++,lower PD-1 protein levels,EC50 [4]: 3 µM
++,CC(NCCC(c1ccccc1)c1ccccc1)c1ccccc1 (centres unmarked) [Compound 15],–,–,–
++++,Cc1cc(/C=C/c2ccc3cc(N(C)C)ccc3[n+]2C)c(C)n1-c1ccccc1 [Compound 18],–,–,Decrease in PD1 protein level by western blot at 4 days at 3 μM [2]: +++
++++,"O=[N+]([O-])c1ccc(-c2nnc(-c3cc(Cl)ccc3O)[nH]2)cc1 [Compound 1, 4-Chloro-2-(5-(4-nitrophenyl)-4H-1,2,4-triazol-3-yl)phenol]",–,–,–
